The record followed here is US9346839B2.

A word on the AUC(0-inf): it is the area under the concentration-time curve extrapolated to infinity. Broadly, the Cmax is the highest concentration seen after dosing. The half-life is the time needed for the level to fall by half in the phase considered. The low end stands for rapid decline, the high end for slow decline. The IC50 is the concentration that inhibits the measured activity by half. A word on the Ki: it is the equilibrium dissociation constant of an inhibitor or competing ligand from its target. The term Tmax denotes the time from dosing to the highest level.

The nature of data set [1]: Pharmacokinetic study, plasma and brain levels by LC-MS/MS. The class given is in vivo. The settings on record: both sexes, C57BL6, mouse, intravenous 10 mg/kg, mice; for AUC(0-t): read-out: AUC0-48. Here is the method:
Liquid Chromatography (LC) Method for Mass Spectrometry (MS) Detection. Chromatographic separation was on an ACE C18 column (Mac Mod Analytical, 3 μm, Ultra-Inert HPLC Column, 50×2.1 mm) protected by a matched ACE guard cartridge. Separation solvents were A: H2O (99%), methanol (1%), and formic acid (0.1%) and B: H2O (1%), methanol (99%), and formic acid (0.1%) delivered at a flow rate of 400 μl/minute. The hydrophobic character of the analytes allows a large injection (50 μl) to chromatofocus on a column at 5% B. After 0.2 minutes separation was with a linear gradient of 11% B/minute for 4 minutes. Column wash was to 80% B for 2 minutes and re-equilibration at 5% B for 1.5 minutes for a total run-time of 8 minutes. The first 2 minutes of chromatographic effluent was diverted to waste.
Mass Spectrometry Parameters. The mass spectrometer was run in positive ion mode using the electrospray ionization (ESI) source. The source block was 100° C. and desolvation gas temperature 300° C. Argon collision gas pressure on a line to the cell was 1E-3 mbar. Quadrupoles 1 and 3 were set to 0.9 amu FWHH and collision energy and cone voltage settings were optimized for each compound. The data were processed using MassLynx 4.1/QuanLynx and Graphpad Prism 5. Fragmentation patterns of compounds 4, 8, and 15, methyl (Z)-3-(((6-methoxybenzo[d]thiazol-2-yl)imino)methyl)benzoate, 4-(1-((6-methoxybenzo-[d]thiazol-2-yl)amino)ethyl)phenol, and (Z)-1-(4-fluorophenyl)-N-(6-methoxybenzo[d]thiazol-2-yl) methanimine were determined by infusing an aqueous/methanol solution introduce with a T fitting into 30% solvent B from the UPLC for source optimization. The most abundant transitions were chosen for all the three compounds.
Plasma Sample Preparation. Mouse plasma samples, 50 μl, were transferred to a 1.5 ml centrifuge tube and then 50 μl of IS (4 μg/ml) and 50 μl of calibration standard sample were vortexed for 30 seconds. Acetonitrile (0.1 ml) was added to precipitate the proteins. After being vortexed for 3 minutes, the sample was centrifuged for 10 minutes at 13000 rpm. Supernatant (50 μl) was diluted with 50 μl water and injected onto the column.
Brain Sample Preparation. Brain tissue (100 mg) was weighed and placed in a centrifuge tube. Methanol (100 μl) was added and the mixture was homogenized for 1 minute before adding 100 μl IS (6 μg/ml) to the homogenized mixture. The sample was then vortexed for 30 seconds before centrifuging for 10 minute at 13000 rpm. The supernatant liquid was diluted 50% with water and injected.
Application to Pharmacokinetic Study and Data Analysis. Using the validated LCMS/MS method, blood and brain levels of 4, 8, and 15 were measured in male and female C57BL6 mice (8-10 week-old, weighing approximately 25-30 grams). The mice were housed in a room with controlled temperature (23±3° C.) and moisture level (55±15% relative humidity) and exposed to a controlled 12 hour light/12 hour dark cycle. They were allowed to access to food and water ad libitum. Mice were fasted for 6 hours with free access to water prior to the pharmacokinetic study. To determine the time course of compounds 4, 8, and 15 action in the brain, the plasma pharmacokinetics and BBB penetration capability of the inhibitors were investigated. In these experiments, compounds 4, 8, and 15 were administered to mice by intravenous injection at a dosage of 10 mg/kg. Blood and brain samples were collected from mouse at each time point (2, 5, 10, 30, 60, 120, 240, 360, 720, 1440, and 2880 minutes), a total of 11 time points. For plasma measurements, blood (approximately 500-800 μl) was collected via cardiac-puncture into tubes containing sodium heparin anti-coagulant. Plasma was separated via centrifugation (4° C., 3500 rpm, 10 minutes) and stored in −80° C. freezer. For qualitative confirmations of these compounds in CSF, samples were collected at 2 time points (240 and 1440 min) from five animals at each time point. […]

Data set [2] addresses ABAD (Homo sapiens (Human), UniProt Q99714). Nature of the data set: Inhibition of reduction of S-acetoacetyl-CoA (SAAC) by ABAD (ABAD enzymatic activity). The class given is biochemical.
Experimental: Assay of ABAD Enzymatic Activity. […] Before the assay, all the assay components except SAAC were pre-incubated for 5 minutes, and the reaction started with the addition of SAAC into the reaction mix. The reaction was carried out for a total 6 minutes at room temperature under steady-state conditions, and the decrease of NADH absorbance at 340 nm was determined every 10 seconds. Kinetic data were analyzed by PRISM (Scitech, San Diego, Calif.) to determine IC50 values and Ki.
The subject of data set [3] is SK-N-SH cells. In words: Mitochondrial cytochrome c oxidase (CcO) activity in Aβ-treated cells. The class given is cell-based. Conditions: for CcO activity, inhibitor alone: 1 μM inhibitor alone, without Aβ; for Aβ-mediated decrease of CcO activity: 5 μM oligomer Aβ1-42 plus 1 μM compound, 48 hours. On the procedure:
SK-NSH cells were treated with 5 μM oligomer Aβ plus 1 μM of ABAD inhibitor; inhibitor alone; vehicle (VEH) without inhibitor; or Aβ alone. Forty-eight hour later, CcO activity (μmol protein mg^−1 min^−1) was measured in cell lysates.
Method of Measurement of Mitochondrial Cytochrome c Oxidase (CcO) Activity. The CcO activity was measured according to known methods (Du, et al. (2008) Nat. Med. 14:1097-105) with a cytochrome c oxidase kit (Sigma). In brief, SK-N-SH cells were incubated with ABAD inhibitor and oligomer Aβ for 48 hours. After washing the cells twice with PBS, the cells were collected and concentration was determined by the Bradford method. A suitable volume of cells and enzyme solution was added to 475 μl assay buffer. The reaction was triggered by the addition of 25 μl freshly prepared ferrocytochrome C substrate solution into the cuvette. Changes in OD550 nm were recorded immediately with an Amersham Biosciences ULTROSPECT 3100 pro spectrophotometer.
Cytochrome C Oxidase (CcO) Activity. To assess the effect of ABAD inhibitor on […] mitochondrial respiratory function, CcO activity was determined.

[4] abbreviates: Table 6, reduction of SAAC by ABAD, read-out: IC50.
Setting [5] is: Table 6, reduction of SAAC by ABAD, read-out: Ki.
Where [6] appears, read: Table 7, read-out: ABAD Enzymatic Activity IC50.
[7] abbreviates: Table 7, read-out: ABAD Enzymatic Activity Ki.

Where two headings read alike, the source gives them in different places.

Chain of ABAD (Q99714 whole entry): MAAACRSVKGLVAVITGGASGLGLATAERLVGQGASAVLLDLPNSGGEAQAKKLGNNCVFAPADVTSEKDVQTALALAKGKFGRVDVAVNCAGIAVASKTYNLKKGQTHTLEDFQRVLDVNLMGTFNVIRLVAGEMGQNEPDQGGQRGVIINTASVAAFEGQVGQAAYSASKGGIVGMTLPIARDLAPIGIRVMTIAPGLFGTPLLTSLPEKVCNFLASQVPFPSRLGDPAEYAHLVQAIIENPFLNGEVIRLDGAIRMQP

In the case of `COc1ccc2nc(N[C@@H](c3ccc(O)cc3)P(=O)(OC)OC)sc2c1` (racemic) [Compound 8, Dimethyl ((4-hydroxyphenyl)((6-methoxybenzo[d]thiazol-2-yl)amino)methyl)phosphonate], in data set [1] (Brain), the AUC(0-inf) was 7.1 ng·h/mL, the Cmax worked out at 4.8 ng/mL, the half-life is 8.3 h and the AUC(0-t) came out at 6.9 ng·h/mL. For the same molecule, in data set [1] (Plasma), the AUC(0-inf) was determined as 2870 ng·h/mL, the Cmax was 2130 ng/mL, the half-life is 5.5 h and the AUC(0-t) turned out to be 2860 ng·h/mL. Also, in data set [2] (setting [4]), the IC50 is 259 µM. Besides, the inhibition constant Ki in data set [2] (setting [5]) worked out at 70.6 µM. Besides, the IC50 in data set [2] (setting [6]) stood at 52.7 µM. Moreover, in data set [2] (setting [7]), the Ki amounted to 14.9 µM. In addition, the “inhibitory effect on SAAC reduction by ABAD” value in data set [2] (in words) is recorded as “most potent inhibitory effect”. Also, in data set [3], the “CcO activity, inhibitor alone” value is reported as “no effect on CcO activity without Aβ” and the “Aβ-mediated decrease of CcO activity” value is recorded as “reversed the Aβ-mediated decrease of CcO activity”.

As for `COC(=O)c1cc([C@H](Nc2nc3ccc(OC)cc3s2)P(=O)(OC)OC)ccc1O` [Compound 4, Methyl 5-((dimethoxyphosphoryl)((6-methoxybenzo[d]thiazol-2-yl)amino)methyl)-2-hydroxybenzoate], in data set [1] (Brain), the AUC(0-inf) turned out to be 75.1 ng·h/mL, the highest level (Cmax) was 50.7 ng/mL, the Tmax turned out to be 1.8 min and the half-life is 17.1 h. Moreover, the AUC(0-t) in data set [1] (Brain) is 66.5 ng·h/mL. Moreover, in data set [1] (Plasma), the AUC(0-inf) was found to be 3030 ng·h/mL, the Cmax stood at 2370 ng/mL, the Tmax came to 1.8 min and the half-life was 6.2 h. Also, in data set [1] (Plasma), the AUC(0-t) amounted to 3030 ng·h/mL. In data set [2] (setting [4]), the IC50 is 19.6 µM. In data set [2] (setting [5]), the Ki came out at 5.5 µM. The half-inhibitory concentration (IC50) in data set [2] (setting [6]) was found to be 341 ± 68.7 µM. Further, the Ki in data set [2] (setting [7]) was determined as 96.6 ± 19.4 µM. In addition, the “inhibitory effect on SAAC reduction by ABAD” value in data set [2] (in words) is reported as “modest inhibitory effect”. Besides, in data set [3], the “CcO activity, inhibitor alone” value is reported as “no effect on CcO activity without Aβ” and the “Aβ-mediated decrease of CcO activity” value is reported as “reversed the Aβ-mediated decrease of CcO activity”.

As for `COc1ccc2nc(N[C@@H](c3ccc(F)cc3)P(=O)(OC)OC)sc2c1` [Compound 15, Dimethyl ((4-fluorophenyl)((6-methoxybenzo[d]thiazol-2-yl)amino)methyl)phosphonate], in data set [1] (Brain), the AUC(0-inf) amounted to 65.4 ng·h/mL, the Cmax was found to be 44.3 ng/mL, the Tmax is 1.8 min and the half-life was 11.4 h. The AUC(0-t) in data set [1] (Brain) is 64 ng·h/mL. Also, in data set [1] (Plasma), the AUC(0-inf) worked out at 2990 ng·h/mL, the highest level (Cmax) was 1980 ng/mL, the Tmax is 1.8 min and the half-life is 6.1 h. The AUC(0-t) in data set [1] (Plasma) was 2980 ng·h/mL. Further, in data set [2] (setting [6]), the IC50 amounted to 1260 ± 199 µM. The Ki in data set [2] (setting [7]) came to 356 ± 56.1 µM. The “inhibition of SAAC reduction by ABAD” value in data set [2] (at 10 μM) is “did not inhibit”. For the same molecule, the “inhibitory effect on SAAC reduction by ABAD” value in data set [2] (at 100 or 400 μM) was “slight inhibitory effect”. In data set [3], the “CcO activity, inhibitor alone” value is given as “no effect on CcO activity without Aβ” and the “Aβ-mediated decrease of CcO activity” value is listed as “reversed the Aβ-mediated decrease of CcO activity”.
